# pEC50: −log10 of the molar value. Where two headings read alike, the source gives them in different places.
# Assays:
# RXRβ = target: T1, RXRβ (UniProt P28704); type: cell-based
# T1 sequence (P28704 1-520): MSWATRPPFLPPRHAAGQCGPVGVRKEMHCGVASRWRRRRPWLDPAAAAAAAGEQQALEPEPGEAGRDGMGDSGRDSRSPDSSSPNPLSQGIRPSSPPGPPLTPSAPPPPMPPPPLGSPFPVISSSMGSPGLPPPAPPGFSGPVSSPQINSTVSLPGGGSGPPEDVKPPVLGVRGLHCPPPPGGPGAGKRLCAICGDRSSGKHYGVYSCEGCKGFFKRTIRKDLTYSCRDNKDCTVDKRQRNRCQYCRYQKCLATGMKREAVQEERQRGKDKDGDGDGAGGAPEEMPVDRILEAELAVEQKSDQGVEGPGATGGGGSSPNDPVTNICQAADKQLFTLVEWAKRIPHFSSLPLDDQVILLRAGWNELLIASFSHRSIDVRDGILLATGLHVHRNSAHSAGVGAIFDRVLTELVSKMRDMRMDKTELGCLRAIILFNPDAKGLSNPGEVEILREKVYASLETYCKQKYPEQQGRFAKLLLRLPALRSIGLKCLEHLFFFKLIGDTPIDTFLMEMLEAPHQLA
# Excerpt: Briefly, the co-transfection assay involves the introduction of two plasmids by transient transfection into a retinoid receptor-negative mammalian cell background. The first plasmid contains a retinoid receptor cDNA and directs constitutive expression of the encoded receptor. The second plasmid contains a cDNA that encodes for a readily quantifiable protein, e.g., firefly luciferase or chloramphenicol acetyl transferase (CAT), under control of a promoter containing a retinoid acid response element, which confers retinoid dependence on the transcription of the reporter. […] This assay can be used to accurately measure efficacy and potency of retinoic acid and synthetic retinoids as ligands that interact with the individual retinoid receptor subtypes.
# [1] = tested on: tamoxifen-resistant primary tumors; assay: Example 1: tumor response of tamoxifen-resistant NMU-induced mammary tumors; type: in vivo, Sprague-Dawley rats; conditions: additional six weeks; for combined response of partial or complete regression / incidence of progressive disease / complete regression of tumors: LGD1069 100 mg/kg orally daily added to tamoxifen 800 μg/kg sc daily, versus tamoxifen alone; for complete regression of tumors: p<0.05
# Description: (§1) Mammary tumorigenesis was induced by administration of 50 mg/kg of N-nitroso-N-methylurea (NMU) (Sigma, St. Louis, Mo.) to 50 day old virgin female Sprague-Dawley rats (Harlan-SD, Indianapolis, Ind.). […] Fresh solutions of NMU were injected within 30 minutes of preparation. The animals were injected in the tail vein with 5 mg NMU/100 g body weight. Rats were housed in a USDA registered facility in accordance with NIH guidelines for the care and use of laboratory animals. […] Beginning five weeks after tumor induction, animals were examined for tumors twice a week. Tumors were measured with electronic calipers (Mitushoyo, Japan) and cross sectional areas were determined by multiplying the longest length of the tumor by the greatest perpendicular width of the tumor.
# [2] = tested on: mammary carcinoma development; conditions: NMU-treated rat, compared with tamoxifen; cited from earlier work
# [3] = tested on: established mammary tumors; assay: Example 3: established NMU-induced mammary tumors, six weeks of treatment; type: in vivo, Sprague-Dawley rats; conditions: for tumors completely regressed / tumors continued to progress / tumors partially regressed: LGD1069 100 mg/kg or tamoxifen 800 μg/kg
# Description: Mammary tumorigenesis was induced by administration of 50 mg/kg of N-nitroso-N-methylurea (NMU) (Sigma, St. Louis, Mo.) to 50 day old virgin female Sprague-Dawley rats (Harlan-SD, Indianapolis, Ind.). NMU was formulated as an aqueous solution of 10 mg/ml by wetting NMU powder with 3% acetic acid and dissolving it in sterile saline. Fresh solutions of NMU were injected within 30 minutes of preparation. The animals were injected in the tail vein with 5 mg NMU/100 g body weight. Rats were housed in a USDA registered facility in accordance with NIH guidelines for the care and use of laboratory animals. […] Beginning five weeks after tumor induction, animals were examined for tumors twice a week. Tumors were measured with electronic calipers (Mitushoyo, Japan) and cross sectional areas were determined by multiplying the longest length of the tumor by the greatest perpendicular width of the tumor.
# [4] = tested on: tumors that grew in the presence of the low-dose tamoxifen; assay: Example 2: NMU-induced tumors that grew in the presence of low-dose tamoxifen; conditions: LGD1069 100 mg/kg PO added to low-dose tamoxifen therapy, compared to treatment with tamoxifen (800 μg/kg SC)
# primary mammary tumors = assay: Example 4: NMU-induced mammary tumors, submaximally efficacious doses alone and coadministered; type: in vivo, Sprague-Dawley rats; conditions: for primary mammary tumors regressed: single agent at submaximally efficacious dose: LGD1069 10 mg/kg, tamoxifen 150 mg/kg
# Description: as §1
# [5] = tested on: estrogen receptor positive breast cancers; conditions: patients, tamoxifen treatment; cited from earlier work
smiles,measurement,setting,value
"CC1=C(/C=C/C(C)=C\C=C\C(C)=C\C(=O)O)C(C)(C)CCC1 [9-cis-retinoic acid, reference compound]",Efficacy,"RXRβ; RXRβ, co-transfection assay",140%
Cc1cc2c(cc1/C(=N/O)c1ccc(C(=O)O)cc1)C(C)(C)CCC2(C)C [LDG100324],Efficacy,RXRβ,51%
same,pEC50,RXRβ; read-out: Potency,8.10
C=C(c1ccc(C(=O)O)cc1)c1cc2c(cc1C)C(C)(C)CCC2(C)C [LGD1069],combined response of partial or complete regression,[1],more than 90%
same,incidence of progressive disease,[1],3%
same,complete regression of tumors,[1],56%
same,incidence of stable disease,"[1]; LGD1069 100 mg/kg orally daily added to tamoxifen, compared with tamoxifen alone",reduced the incidence
same,inhibiting mammary carcinoma development (chemopreventive),[2],as effective as the anti-estrogen tamoxifen
same,antitumor efficacy on established mammary tumors,"[3]; LGD1069 100 mg/kg daily for six weeks, compared with tamoxifen 800 μg/kg",greater efficacy than treatment with tamoxifen
same,tumors completely regressed,[3]; daily for six weeks,72.2%
same,tumors continued to progress,[3]; daily for six weeks,11.1%
same,tumors partially regressed,[3]; daily for six weeks,16.7%
same,amount of progressive disease,[4],significantly reduced the amount of progressive disease
same,tumors completely regressing,primary mammary tumors; LGD1069 10 mg/kg coadministered with tamoxifen 150 mg/kg,26.3%
same,primary mammary tumors regressed,primary mammary tumors,10.5%
"CC/C(=C(\c1ccccc1)c1ccc(OCCN(C)C)cc1)c1ccccc1 [tamoxifen, reference compound]",combined response of partial or complete regression,[1],44%
same,incidence of progressive disease,[1],44%
same,complete regression of tumors,[1],16.7%
same,estrogen receptor positive breast cancers that respond to treatment,[5],approximately 66%
same,tumors completely regressed,[3]; daily for six weeks,33.3%
same,tumors continued to progress,[3]; daily for six weeks,28.6%
same,tumors partially regressed,[3]; daily for six weeks,33.3%
same,tumors remained static,"[3]; daily for six weeks, tamoxifen 800 μg/kg",4.8%
same,primary mammary tumors regressed,primary mammary tumors,5.6%

# — patent US7259188B2, “Methods and pharmaceutical compositions for treatment of anti-estrogen resistant breast cancer using RXR modulators” (priority 1998, dated 2007)
